Results: patent US8252752B2 (priority 2000, dated 2012)
Entries after “also recorded” stand apart in the source; their conditions may differ.

Key:
MPTP-lesioned mice = type: in vivo, C57BL/6 mice
Procedure: Experimental mice were lesioned with MPTP (i.e., 40 mg/kg, ip twice, 1 month).
METHODS: Rota-Rod performance measures the length of time each animal manages to maintain its balance on the rotating lucite rod. Prior to MPTP-esioning animals, the performance was conditioned in three training sessions. The general training and testing procedure was as follows: namely,
Animals were placed on a stationary rod for 30 sec to accustom the behavior and establish familiarity with the environment. During this time if an animal fell, it was placed back on the rod; Next, animals were conditioned (or tested) at a constant speed of 5 rpm for 90 sec.;
Any animal that failed a first test was re-tested two more times; Any animal that failed a third test at 5 rpm was removed from the experiment; Thirty-minutes (30 min) after the last 5 rpm trial, each animal was placed back on the rod the speed was increased to 10 rpm; The length of time that each animal was able to maintain balance on the rod was measured at the constant speed of 10 rpm, i.e., data collection.

[1] = system: Tyrosine hydroxylase (TH); details: 20 mg/kg for two months vs NaCl
Nurr1 deficient mice = system: Nurr1 deficient mice
Procedure: Rota rod performance measurements were made on a weekly basis during an 8 week treatment period.
MATERIALS AND METHODS: RotaRod performance measurements (time that balance was maintained on the rod) were performed (as in Study #1), each week during 8 weeks of treatment.

human DAT = human DAT (Homo sapiens, UniProt Q01959)
Procedure: To obtain differing levels of DAT expression, cells were transiently transfected) with plasmids containing a DAT cDNA insert (hDAT), or alternatively, control irrelevant cDNA insert (Negative Control, NC). After 48-72 hrs. culture, dopamine transport was measured in the transiently transfected hDAT-cells by incubation for 5 hrs. in the presence of ^3H-labeled dopamine (Positive Control, PC).

6-OHDA-lesioned rats = system: 6-OHDA-lesioned rats
From the text: The nigral dopamine depletion is induced by using unilateral injections of 6-OHDA directly into the nigrostriatal system (AP: −4.4 mm, ML: 1.1 mm, DV: 7.5 mm, AP: −4.0 mm, ML: 0.8 mm, DV: 7.8 mm).
METHODS for STUDY #2: The Rota-Count 8 unit is an eight channel rotational meter. The system utilizes a digital rotary encoder and each encoder is mounted in a small bowl with a cable attachment; thereby, rotations of rats are automatically recorded. 6-OHDA in 0.9% NaCl at a concentration of 0.2% (w/v)-8 μl injected into the nigrostriatum. To control for injection failures in the injections, only 6-OHDA-lesioned rats that rotated more than 5 cycles/min at 7 days post-injection were selected for experimental use.

human DAT, sequence (Q01959 whole entry): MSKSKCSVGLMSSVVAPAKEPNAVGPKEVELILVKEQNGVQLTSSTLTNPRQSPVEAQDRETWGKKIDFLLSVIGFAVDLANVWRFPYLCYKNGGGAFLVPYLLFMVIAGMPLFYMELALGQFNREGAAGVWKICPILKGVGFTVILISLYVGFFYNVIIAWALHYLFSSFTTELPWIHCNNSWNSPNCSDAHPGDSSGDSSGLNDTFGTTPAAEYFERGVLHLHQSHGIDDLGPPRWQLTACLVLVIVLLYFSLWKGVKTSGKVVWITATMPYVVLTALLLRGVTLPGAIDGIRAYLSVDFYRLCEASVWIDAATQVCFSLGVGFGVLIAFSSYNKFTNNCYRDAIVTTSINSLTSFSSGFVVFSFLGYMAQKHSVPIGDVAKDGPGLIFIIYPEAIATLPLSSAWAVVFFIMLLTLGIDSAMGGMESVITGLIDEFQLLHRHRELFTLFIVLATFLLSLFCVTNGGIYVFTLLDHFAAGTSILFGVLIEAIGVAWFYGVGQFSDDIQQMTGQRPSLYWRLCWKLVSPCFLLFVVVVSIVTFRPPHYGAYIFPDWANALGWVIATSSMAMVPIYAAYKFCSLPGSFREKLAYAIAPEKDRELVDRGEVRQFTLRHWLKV

Compound | reduction of Rota-Rod mean time (MPTP-lesioned mice; after lesioning, 40 mg/kg ip twice) | amount of TH per neuron [1] | increase in number of neurons staining positively for TH ([1]; not statistically significant, n=6) | stability of Rota Rod performance during treatment (Nurr1 deficient mice; 20 mg/kg twice daily, 8 weeks) | improvement of Rota Rod performance relative to saline treated controls (Nurr1 deficient mice; 20 mg/kg twice daily, within two weeks of treatment) | Rota-Rod time compared with pretreatment performance times (Nurr1 deficient mice; 20 mg/kg, p<0.05) | time to return of Rota-Rod performance to pre-treatment values after cessation of treatment (Nurr1 deficient mice; after 8 weeks of treatment) [weeks] | Rota-Rod performance after cessation of treatment (washout) (Nurr1 deficient mice; after 8 weeks of treatment, p<0.05) | Rota-Rod performance times relative to NaCl-treated controls (MPTP-lesioned mice; mouse, in vivo) | onset of significant improvement in Rota-rod performance times (MPTP-lesioned mice; mouse, in vivo) | locomotor activity after two months of treatment (MPTP-lesioned mice; mouse, in vivo, ip, 20 mg/kg) | competition of 3H-dopamine uptake (human DAT; hDAT-transfected cells, 5 hrs. incubation) | transportability at DAT (human DAT; summary of EXAMPLE 12) | apomorphine-induced rotation (6-OHDA-lesioned rats; 20 mg/kg, 4 weeks, p<0.05) | agonist effects (rotation triggered by the compound itself) (6-OHDA-lesioned rats; 80 mg/kg or 200 mg/kg)
CN1CC=C(c2ccccc2)CC1 [MPTP, 1,2,3,6-methyl-phenyl-tetrahydropyridine, reference compound] | over 65% | – | – | – | – | – | – | – | – | – | – | – | – | – | –
Dopamine gluconamide [Compound #1] | – | qualitatively much higher | 20-30% | remained stable during the course of the 8-week treatment study | about 2 fold | significant increase of Rota-Rod time within two weeks of treatment | ≤ 2 | degraded significantly within one week | 8-9 fold | about the third week of treatment; also recorded: about the second week | recovered locomotor activity | Competition of ^3H-dopamine uptake was observed | transportable at DAT | significantly decreased apomorphine-induced rotation | did not trigger visible effects
